Measured values reported in patent US20120258938A1, “Enzymatic Production or Chemical Synthesis and Uses for 5,7-Dienes and UVB Conversion Products Thereof” (priority 2008, published 2012).
Blank lines part the entries; values can stand above or below the compound they belong to.

Columns and labels:
[1] = test system: Col1A1 mRNA; test: Real time RT PCR Col1A1 mRNA, TGF-b1 stimulated skin fibroblasts; assay type: cell-based; details: human skin fibroblasts
Procedure: (§1) Additional studies using human skin fibroblasts were performed employing a type I collagen specific ELISA Chondrex, and real time RT PCR to quantitate type I collagen protein and Col1A1 mRNA expression in culture of human fibroblast stimulated by TGF-b1 in the presence and absence of 17,20S(OH)2pD3 and/or 20(OH)D3. These studies confirmed that Type I collagen protein production that was induced by TGF-b1 and that Col1A1 mRNA that was induced by TGF-b1 were suppressed by these analogues (FIGS. 44A-44B).

[2] = test system: type I collagen; test: Type I collagen ELISA, TGF-b1 stimulated skin fibroblasts; assay type: cell-based; details: human skin fibroblasts
Procedure: as §1

[3] = test system: anti-CD3 stimulated DBA/1 Lac J spleen cells; test: Cytokine/chemokine production by anti-CD3 stimulated spleen cells (Luminex); assay type: cell-based, mouse; details: spleen cells + anti-CD3 (4 μg/ml) + analogue 10^−7 M, 5 days, supernatant, one mouse
Procedure: Vitamin D analogues were solubilzed in absolute alcohol (EtOH) and added at 1:100 dilution to cultures of spleen cells from normal DBA/1 Lac J mice (Table 13). […] Therefore, changes are not due to decreased cell viability.
Spleen cells from three normal 8 wk old female DBA/1 Lac J mice were cultured in 96 well tissue culture plates in quadruplicate at 2×10^6 cells/ml in RPMI 1640 medium containing 9% FCS with and without anti-CD3 (4 μg/ml) and with anti-CD3+10^−7M natural vitamin D analogues for 5 days after which time supernatants were harvested and subjected to cytokine multiplex on a Luminex instrument using Milliplex Mouse Kit (values are pg/ml). The general trend in changes in cytokine levels were similar for each of the mice but some produced different levels of each cytokine for each culture additions. Data from one mouse are given and bold numbers indicate those that changed from anti-CD3 stimulated culture with vitamin D analogues added. There was no significant stimulation of IL-1 g, IL-2, IL-4, IL-5, IL-7, IL-9, IL-12 p70, IL-13, IL-15, MIP-2, RANTES or TNFα with the anti-CD3 MOAB.

[4] = test system: Human dermal fibroblasts; test: TGF-b1 induced collagen protein production by dermal fibroblasts; assay type: cell-based; details: collagenase sensitive protein, [3H]-proline
Procedure: Human dermal fibroblasts grown from explant skin cultures at less than 10 subpassages were plated at 5×10^4 cells per well in 24 well Costar tissue culture plates and were grown to confluency. Complete MEM was then changed to serum free Complete MEM without non-essential amino acids. After 24 hours, culture medium was changed (450 μl/well) to the same and secosteroids listed in Table 14 were added in 10 μl absolute alcohol (ETOH) to a final concentration of 10^−9 and M, 3 replicate wells each. Vehicle control wells (n=6) contained 10 μl (ETOH). After 2 hour pre-incubation, hr TGF-b1 (R and D systems) was added to each well except ETOH wells at a final concentration of 5 ng/ml. After 48 hours of culture, plate wells were paused with 1μ Cl ^3[H]-proline. After 24 hours, culture supernatants were harvested and collagenase sensitive protein was determined as previously described (44).

[5] = test system: AbC1 hamster melanoma cells; test: Soft agar colony formation, AbC1 melanoma; assay type: cell-based; details: AbC1, 3 weeks
Procedure: Growth and survival of prostate cancer cells (PC3) and melanoma cells SKMEL 188 and AbC1 was determined by following their ability to form colonies in soft agar. Cells growing in monolayer culture were trypsinized and resuspended (1,000 cells/well) in 0.25 ml medium containing 0.4% agarose and 5% charcoal stripped serum (HyClone).
Cell suspensions were added to 0.8% agar layer in 24 well plates. Compounds were added from ethanol stocks (100 μM) to final concentrations of 0.1 nM or 10 nM, in 100 μL media. Each condition was tested in quadruplicate. An ethanol solvent control (amount of ethanol equivalent to test) as well as a media-only control was included in the assay. […] […] Colonies were then counted under the microscope and number of units was calculated as number of colonies formed divided by the number of cells seeded×100.

[6] = test system: SKMEL-188 human melanoma cells; test: MTT cell viability, SKMEL-188; assay type: cell-based; details: SKMEL-188, 48 hrs, dose dependent
Procedure: MTT test were performed. Briefly, the cells were seeded in 96-well plate. Following 24, 48, 72 or 96 h incubation, MTT (5 mg/mL in PBS, Promega, Madison, Wis.) was added and the plates were incubated at 37° C. in 5% CO2 for 4 h. Subsequently, medium was discarded, acid isopropanol was added, plates were incubated for 30 min with continuous shaking and absorbance was measured at 570 nm with a plate reader (BIO-RAD Laboratories, Hercules, Calif.).

[7] = test system: K562 human chronic myeloid leukemia cells; test: Viable cell count, K562 cells; assay type: cell-based; details: 10^-7 M, 7 days
Procedure: (§2) K562 human chronic myeloid leukemia (erythroleukemia) and MEL mouse erytholeukemia cells were cultured in RPMI 1640 containing 10% FBS and treated with the drugs at concentrations 0.1 μM. A 0.1% ethanol (EtOH) or 2% DMSO were used as negative or positive control, respectively to estimate the vehicle effect and the ability of the cells to differentiate. Media were exchanged every 72 h and drugs added every day. Growth of cultures was estimated by counting number of viable cells (trypan blue negative cells) as described previously.

[8] = test system: K562 human chronic myeloid leukemia cells; test: Erythroid differentiation of K562 cells; assay type: cell-based; details: 10^-7 M, 7 days
Procedure: as §2
To estimate erythroid differentiation (production of hemoglobin), first the number of benzidine positive cells was evaluated after 2 and 7 days in culture. Cells were centrifuged and washed four times with PBS and resuspended in 1 mL of fresh PBS. For hemoglobin determination, a benzidine staining solution was freshly prepared by mixing one part of 30% hydrogen peroxide, one part of base stock solution of 3% benzidine in 90% acetic acid, and 5 parts of water. The solution was diluted 1:10 with the cell suspension and aliquoted in 4 wells in 24-well plate (250 μl each). After 10 min of incubation at RT benzidine-positive cells were counted under the microscope with a minimum of 200 cells scored.
Second, to define spectrophotometrically relative content of hemoglobin, equal number of cells (7×106) were washed with cold PBS and lysed for 20 min in 100 μL of lysis buffer (0.2% Triton X-100 in […] potassium phosphate buffer, pH 7.8). The lysates were centrifuged for 15 min at 1500 r.p.m. and 100 μL of the supernatant was incubated with 2 mL of benzidine solution (5 mg/mL in glacial acetic acid) and 2 ml 30% H2O2 for 10 min increases in comparison with the level of hemoglobin in mock-induced K562 or MEL cells.

[9] = test system: mouse erytholeukemia cells (Mel); test: Viable cell count, MEL cells; assay type: cell-based; details: 10^-7 M, 7 days
Procedure: as §2

[10] = test system: HaCaT keratinocytes; test: [3H]-thymidine DNA synthesis in HaCaT keratinocytes; assay type: cell-based, human; details: HaCaT, 24 hrs, dose dependent
Procedure: HaCaT keratinocytes were plated in 96-well plates at the density of 10,000 cells/well in DMEM (Cellgro, Herndon Va.) containing 5% charcoal treated fetal bovine serum (Hyclone, Logan, Utah), 1% antibiotic solution (PSA, Sigma, St. Louis, […].). Next day, media were changed and vehicle (ethanol) or secosteroids added. Cells were incubated with compounds for 48 hours. [^3H]-thymidine (Amersham Biosciences, Picataway, N.Y.) was added to the final concentration of 1 μCi/mL medium for last 12 hours of incubation. Media were then discarded, cells detached with trypsin and harvested on a glass fiber filter (Packard, Meriden, Calif.). Radioactivity was measured with a beta counter (Direct Beta-Counter Matrix 9600; Packard).
To measure DNA synthesis, keratinocytes, melanoma or prostate cancer cells were plated in 96-well plates. After overnight incubation tested compounds were added to the medium to achieve final concentrations 10^−7-10^−10 [M]. 100 μl of medium per well containing vitamin D3 compound was added to the cells. After 36 hours of incubation [3H]-thymidine (specific activity 88.0 Ci/mmol; Amersham Biosciences, Picataway, N.Y., USA) was added at 1 μCi/mL medium. After 12 hours, media were discarded, cells detached with trypsin and harvested on a glass fiber filter (Packard, Meriden, Calif., USA). 3H-radioactivity was measured with a beta counter (Direct Beta-Counter Matrix 9600; Packard).
HaCaT keratinocytes were plated out in 24-well plates, 50,000 cells/well. […] After 4 h media were discarded, cells washed with cold phosphate-buffered saline and incubated in 10% trichloroacetic acid for 30 min. Cells were washed again with phosphate-buffered saline, 100 μl 1.0 M NaOH was added to each well and plates incubated for 30 min at 30° C. The supernatant was collected and the ^3H-radioactivity measured by scintillation counting using a Direct Beta-Counter Matrix 9600 (Packard). The [^3H]-thymidine incorporation into DNA was measured separately for each well and the results entered into the calculation as the mean of 6 wells for each condition in a series of six experiments (n=36). Data were analyzed with GraphPad Prizm Version 4.0 (GraphPad Software Inc., San Diego, Calif., USA) using t tests. Differences were considered significant when p<0.05.

[11] = test system: U937 promonocytic leukemia cells; test: Monocytic differentiation (NBT), U937; assay type: cell-based, human; details: U937, 0.1 μM
Procedure: (§3) HL-60 human promyelocytic and U937 promonocytic leukemia cells were treated with the drugs at 0.1 μM or vehicle (negative control or 12-O-tetradecanoylphorbol-13-acetate (TPA) (positive control). Media were changed every 72 h and test substances added fresh every day. Differentiation toward monocytes-like morphology and NBT-reduction has been assessed after 5 and 7 days. Cells (2×106) were washed with PBS four times and resuspended in 200 μL of NBT solution (4 mg/mL) in water. After the addition of 200 ul of TPA solution (2 ug/ml) in PBS cells were incubated at 37° C. for 60 min in 24-well plates. Cell differentiation was assessed by intracellular blue formazan deposits. The NBT positive and negative cells were scored under light microscopy examination (40×) with a minimum of 200 cells scored.
(§4) For spectrophotometric analysis the cells were washed twice with buffer containing cold bovine serum albumin solution (17 mg/mL BSA, 137 mmol/L, NaCl, 5 mmol/L, KCl, 0.8 mmol/L, MgSO4, […], HEPES, pH7.4) to remove unreacted NBT, and the insoluble formazan deposits in the resulting pellet were solubilized in 1 mL of a mixture containing 90% DMSO, 0.1% SDS and 0.01 mmol/L NaOH by vigorous vortexing. The samples were centrifuged 5 min at 1500 g to remove the cellular debris, and then the absorbance of supernatants was measured at 715 nm. Data are expressed as change in A715/106 cells.

[12] = test system: HL-60 human promyelocytic leukemia cells; test: Monocytic differentiation (NBT), HL-60; assay type: cell-based; details: HL-60, 0.1 μM
Procedure: as §3, §4

[13] = biological target: human CYP27B1 (Homo sapiens, UniProt O15528); test: Metabolism by CYP27B1 in phospholipid vesicles; assay type: in vitro ADME; details: up to 10 min
Procedure: (§5) Adrenodoxin was added last to initiate the reaction.
(§6) Products and remaining substrate were extracted with dichloromethane, and measured by reverse phase HPLC as described before (12, 13b).

[14] = biological target: bovine CYP11A1 (Bos taurus, UniProt P00189); test: Metabolism by CYP11A1 (P450scc) in phospholipid vesicles; assay type: in vitro ADME; details: first 2 min of incubation
Procedure: as §5, §6

bovine CYP11A1, sequence (P00189 40-520): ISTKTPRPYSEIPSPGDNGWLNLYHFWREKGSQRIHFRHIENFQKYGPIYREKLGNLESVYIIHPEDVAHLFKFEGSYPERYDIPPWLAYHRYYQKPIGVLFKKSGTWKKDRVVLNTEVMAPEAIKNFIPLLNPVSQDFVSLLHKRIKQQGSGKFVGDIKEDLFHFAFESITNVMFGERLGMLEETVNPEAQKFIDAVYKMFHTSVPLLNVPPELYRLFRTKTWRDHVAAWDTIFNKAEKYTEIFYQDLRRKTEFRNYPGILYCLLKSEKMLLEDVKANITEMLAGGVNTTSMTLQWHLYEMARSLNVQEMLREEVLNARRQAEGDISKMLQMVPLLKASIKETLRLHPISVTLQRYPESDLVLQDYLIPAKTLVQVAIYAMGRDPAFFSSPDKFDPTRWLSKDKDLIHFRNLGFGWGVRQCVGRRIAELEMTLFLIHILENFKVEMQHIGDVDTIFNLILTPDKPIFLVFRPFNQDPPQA
human CYP27B1, sequence (O15528 whole entry): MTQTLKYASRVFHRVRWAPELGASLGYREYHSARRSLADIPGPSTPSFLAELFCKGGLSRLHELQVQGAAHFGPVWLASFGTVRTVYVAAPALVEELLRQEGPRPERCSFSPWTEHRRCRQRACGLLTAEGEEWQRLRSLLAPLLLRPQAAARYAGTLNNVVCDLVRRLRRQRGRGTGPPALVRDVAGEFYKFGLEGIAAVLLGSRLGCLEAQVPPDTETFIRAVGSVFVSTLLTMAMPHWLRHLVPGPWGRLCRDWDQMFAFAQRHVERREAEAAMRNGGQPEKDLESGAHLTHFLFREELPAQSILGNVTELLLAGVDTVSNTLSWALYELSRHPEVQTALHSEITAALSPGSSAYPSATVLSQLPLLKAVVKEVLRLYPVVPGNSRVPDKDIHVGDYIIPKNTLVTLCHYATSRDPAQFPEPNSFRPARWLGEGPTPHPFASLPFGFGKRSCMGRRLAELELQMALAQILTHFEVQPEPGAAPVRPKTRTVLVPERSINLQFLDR

Compound: C=C1CC[C@H](O)C/C1=C/C=C1\CCC[C@@]2(C)[C@H]1CC[C@]2(O)[C@H](C)O [17,20S(OH)2pD3, (5Z,7E)-(20S)-9,10-secopregna-5,7,10(19)-triene-3β,17α,20-triol]
- TGF-b1 induced Col1A1 mRNA [1]: suppressed
- TGF-b1 induced Type I collagen protein production (ELISA) [2]: suppressed
- G-CSF [3]: 12 pg/mL
- GM-CSF [3]: 41 pg/mL
- IFNγ [3]: 0 pg/mL
- IL-1α [3]: 4 pg/mL
- IL-6 [3]: 13 pg/mL
- IL-10 [3]: 16 pg/mL
- IL-17 [3]: 111 pg/mL
- IP-10 [3]: 6 pg/mL
- KC [3]: 5 pg/mL
- MCP-1 [3]: 102 pg/mL
- TGF-b1 induced collagen protein production [4]: inhibited TGF-b1 induced collagen protein production

Compound: C=C1CC[C@H](O)C/C1=C/C=C1\CCC[C@]2(C)[C@@H](C(C)O)CC[C@@H]12 (stereo partly drawn) [20OH pD3, (5Z,7E)-9,10-secopregna-5,7,10(19)-triene-3β,20-diol]
- growth on soft agar (colonies greater than 0.2 and 0.5 mm) [5]: inhibit the growth on soft agar
- proliferation (MTT test) [6]: inhibit proliferation
- proliferation of K562 cells [7]: inhibit proliferation
- differentiation of K562 cells [8]: induce differentiation
- proliferation of mouse erytholeukemia cells (Mel) [9]: inhibit proliferation
- proliferation (DNA synthesis) [10]: inhibit proliferation

Compound: CC(O)[C@H]1CC[C@H]2C3=CC=C4C[C@@H](O)CC[C@@]4(C)[C@@H]3CC[C@]12C (stereo partly drawn) [20OH pL3, 3β,20-dihydroxy-9β,10α-pregna-5,7-diene]
- growth on soft agar (colonies greater than 0.2 and 0.5 mm) [5]: inhibit the growth on soft agar
- proliferation (MTT test) [6]: inhibit proliferation
- proliferation of K562 cells [7]: inhibit proliferation
- monocytic differentiation (NBT staining) [11]: induce monocytic differention
- monocytic differentiation (NBT staining) [12]: induce monocytic differention
- differentiation of K562 cells [8]: induce differentiation
- proliferation of mouse erytholeukemia cells (Mel) [9]: inhibit proliferation
- proliferation (DNA synthesis) [10]: inhibit proliferation

- substrate consumed [14]: 13%
Compound: C=C1CC[C@H](O)C/C1=C/C=C1\CCC[C@@]2(C)[C@H]1CC[C@@H]2[C@@](C)(O)CCCC(C)C [20S(OH)D3, (5Z,7E)-9,10-secocholesta-5,7,10(19)-triene-3β,20S-diol]
- metabolism by CYP27B1 [13]: metabolized to a single product at comparable initial rates
